Reference: US9624211B2, “Anti-cancer compounds” (Board of Regents, The University of Texas System, priority 2013, dated 2017)

What was measured:
[1] = tested on: p53-deficient prostate cancer cells; experiment: Cell senescence assay (SA-b-gal); format: cell-based
Description: (§1) For Skp2 inhibitor administration, 5-10×10^3 of cells with were seeded in 12 wells in triplicate, 24 h later, treated with compound #25 (refreshed every two days). Four days later, cells were harvested, stained with trypan blue, and viable cells were counted directly under the microscope using hemocytometer. For doxorubicin treatment, 8×10^3 of PC3 cells with were seeded in 12 wells in triplicate, 24 h later, treated with various dose of compound #25 in the presence or absence of 10 nM doxorubicin or 25 ng/ml cyclophosphamide for four and three days, respectively (refreshed every two days). After treatment, cells were harvested, stained with trypan blue, and viable cells were counted directly under the microscope using hemocytometer. Cellular senescence was determined by assessing SA-b-gal activity using senescence detection kit according to manufacturers' standard procedures (Calbiochem).

Hep3B (liver) = experiment: Cell survival assay, Hep3B; format: cell-based, human
Description: as §1

[2] = tested on: Skp2 Trp97Ala and Asp98Ala mutants; experiment: In vitro binding of compound to GST-Skp2 mutants by LC-MS/MS; conditions: preexisting Skp2-Skp1 complex
Description: To corroborate this notion, the in vitro binding assay was performed to compare the binding affinity of compound #25 to WT Skp2 and Skp2 mutants (Trp97Ala and Asp98Ala) using LC-MS/MS analysis. Of note, since the nature of recombinant Skp2 protein was unstable in the absence of Skp1 (Li et al., 2005), the GST-Skp2 WT, GST-Skp2 Trp97Ala and GST-Skp2Asp98Ala mutants subjected to LC-MS/MS analysis were co-expressed, purified and preformed complex with Skp1 (FIG. 10A).

binding to Trp97Ala and Asp98Ala mutants [2]: failed to interact
Structure (SMILES): CCc1cc2c(=O)c(-c3nc4ccccc4s3)coc2c(CN2CCCCC2)c1O [compound #25, 3-(1,3-benzothiazol-2-yl)-6-ethyl-7-hydroxy-8-(1-piperidinylmethyl)-4H-chromen-4-one]
cellular senescence [1]: triggered cellular senescence | cell viability (Hep3B (liver)): potent suppressive effect on viability
